Patent US8536196B2, “Substituted 1,3-dioxanes useful as PPAR modulators” (Evolva SA, priority 2007, dated 2013)

How the values were obtained:
3T3-L1 preadipocytes = experiment: Glucose uptake assay; type: cell-based
Method: This example illustrates that compounds identified as PPARgamma agonists also produce a physiological effect in cellular assays, expected of a PPARgamma agonist, namely an effect on glucose uptake. Glucose uptake assays are important to establish the suitability of a compound for the treatment of insulin resistance.
Briefly, 3T3-L1 preadipocytes are grown in 12-well plates until confluence. Cells are washed with serum-free DMEM and incubated with 1 ml of the same medium at 37° C. for 1-2 h. The cells are then washed with Krebs-Ringer-Hepes (KRP) buffer and then incubated with 0.9 ml KRP buffer at 37° C. for 30 min. Insulin is added to the cells at 0, 0.3, 1 and 3 nM final concentrations and incubated for 15 min at 37° C. Glucose uptake is initiated by the addition of 0.1 ml of Krebs-Ringer phosphate (KRP) buffer supplemented with 10 mM [^3H] 2-deoxy-D-glucose (1 mCi/l). After 10 min incubation at 37° C., the medium is aspirated and plates washed with ice-cold PBS to terminate the induced glucose uptake. The cells are lyzed with 0.5 ml 1% Triton X-100 and radioactivity levels determined using a scintillation counter. The results are depicted in FIG. 7.

PPARgamma (h) = molecular target: T1, PPARgamma (h) (Homo sapiens, UniProt P37231); experiment: Human recombinant (E. coli) PPARgamma (h) binding assay; settings: [3H]-rosiglitazone 10 nM, 120 min at 4° C.
T1 construct: host or cells: E. coli
T1 sequence (P37231 1-505): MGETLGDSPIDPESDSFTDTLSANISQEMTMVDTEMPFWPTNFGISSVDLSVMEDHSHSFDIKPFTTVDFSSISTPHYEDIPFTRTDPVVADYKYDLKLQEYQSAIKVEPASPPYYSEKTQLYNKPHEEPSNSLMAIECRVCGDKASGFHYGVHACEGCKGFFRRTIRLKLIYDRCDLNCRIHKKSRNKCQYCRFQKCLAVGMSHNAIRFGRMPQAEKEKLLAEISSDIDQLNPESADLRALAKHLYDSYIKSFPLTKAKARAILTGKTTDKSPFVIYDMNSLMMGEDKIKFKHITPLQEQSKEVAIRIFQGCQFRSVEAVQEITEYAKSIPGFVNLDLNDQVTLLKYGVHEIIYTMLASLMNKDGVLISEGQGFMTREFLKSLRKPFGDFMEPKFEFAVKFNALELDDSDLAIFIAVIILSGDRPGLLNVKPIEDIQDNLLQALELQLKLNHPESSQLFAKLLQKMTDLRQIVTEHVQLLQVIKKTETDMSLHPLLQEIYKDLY
Method: The results are expressed as a percent of control specific binding ((measured specific binding/control specific binding)×100) obtained in the presence of the test compounds. The IC50 values (concentration causing a half-maximal inhibition of control specific binding) and Hill coefficients (nH) were determined by non-linear regression analysis of the competition curves generated with mean replicate values using Hill equation curve fitting (Y=D+[(A D)/(1+(C/C50)nH)], where Y=specific binding, D=minimum specific binding, A=maximum specific binding, C=compound concentration, C50=IC50, and nH=slope factor). This analysis was performed using a software developed at Cerep (Hill software) and validated by comparison with data generated by the commercial software SigmaPlot® 4.0 for Windows® (© 1997 by SPSS Inc.). The inhibition constants (Ki) were calculated using the Cheng Prusoff equation (Ki=IC50/(1+(L/KD)), where L=concentration of radioligand in the assay, and KD=affinity of the radioligand for the receptor).

[1] = molecular target: T2, full length human PPARdelta (Homo sapiens, UniProt Q03181); experiment: Transactivation assay with full length human PPARdelta; type: cell-based
T2 construct: expressed in transfected cells
T2 sequence (Q03181 1-441): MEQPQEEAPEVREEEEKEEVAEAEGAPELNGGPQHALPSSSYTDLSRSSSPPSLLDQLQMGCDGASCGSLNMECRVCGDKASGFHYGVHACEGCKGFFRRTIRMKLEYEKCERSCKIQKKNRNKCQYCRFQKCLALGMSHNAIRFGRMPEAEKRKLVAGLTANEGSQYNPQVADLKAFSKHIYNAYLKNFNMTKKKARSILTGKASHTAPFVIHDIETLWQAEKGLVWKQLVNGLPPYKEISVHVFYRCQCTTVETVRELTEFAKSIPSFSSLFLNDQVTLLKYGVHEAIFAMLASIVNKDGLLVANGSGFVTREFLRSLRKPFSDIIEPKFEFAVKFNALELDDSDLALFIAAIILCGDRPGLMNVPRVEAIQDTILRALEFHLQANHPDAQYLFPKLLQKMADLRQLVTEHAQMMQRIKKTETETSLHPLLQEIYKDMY

MEFs / 3T3-L1 = experiment: Adipocyte differentiation induction assay (Oil Red O staining); type: cell-based, mouse
Method: This example describes an assay for determining adipocyte differention. Compounds are tested to see whether they induce adipocyte differentiation and also to see whether they inhibit adipocyte differention.
MEFs were grown in AmnioMax basal medium (Gibco) supplemented with 7.5% Amniomax supplement C-100 (Gibco), 7.5% Fetal Bovine Serum (FBS), 2 mM Glutamine, 62.5 μg/ml penicillin and 100 μg/ml Streptomycin (growth medium). At confluence, MEFs were induced to differentiation in growth medium with the addition of 1 μM dexamethasone (Sigma) 0.5 mM isobutylmethylxanthine (Sigma), 5 μg/ml insulin (Sigma) and 10 μM test compound dissolved in DMSO or DMSO alone. Medium was subsequently renewed every 48 hrs with growth media supplemented with 5 μg/ml Insulin and ligand or DMSO.
Briefly, to test compounds as inducers of adipocyte differentiation, 3T3-L1 are grown to confluence in DMEM with 10% Calf serum (CS), typically in 24 well dishes. At 2 days post confluence (day 0), cells are induced to differentiate with DMEM supplemented with 10% fetal bovine serum (FBS), 1 μM dexamethasone and the test compound (01, 1 and 10 μM). BRL49653 (1.0 μM dissolved in 100% DMSO) is used as a positive control. After 48 h, the cells are re-fed with DMEM containing 10% FBS supplemented with the test compound or the positive control. From day 4, cells are grown in DMEM with 10% FBS and are changed every second day until day 8. At day 8, cells are stained with Oil Red O as described below.
Cells cultured as described above are used for Oil Red staining. Dishes are washed in PBS and cells were fixed in 3.7% paraformaldehyde for 1 h and stained with oil red O as described in (Hansen et al 1999). Oil red O solution stock solution is prepared by dissolving 0.5 g of Oil Red O (Sigma) in 100 mL of isopropanol. Oil re 0 working solution is prepared by diluting a stock solution with water (6:4) followed by filtration.
Table II summarizes results obtained with different analogs of DPD (SN1), “0” representing similar results to DPD, “−1” representing even less adipocyte differentiation, “+1” representing more adipocyte differentiation (both relative to DPD) and “−” meaning not assayed.

IC50 (PPARgamma (h)): 21 µM
activation of full-length hPPARdelta [1]: no activation
SMILES: O=C(O)CC/C=C\CC1COC(c2ccccc2Cl)OC1c1ccccc1O (racemic) [SN1, (Z)-6-(-2-(2-chlorophenyl)-4-(2-hydroxyphenyl)-1,3-dioxan-5-yl)hex-4-enoic acid]
glucose uptake compared with Avandia (3T3-L1 preadipocytes): same level of glucose uptake at 10 mM as Avandia at 1 mM
red staining (Oil Red O) in the induction assay (MEFs / 3T3-L1): very little red staining
